One assay concerns L02 cells. In words: Cytotoxicity on L02 cells (MTT). Format: cell-based, human. The conditions noted are these: Homo sapiens, L02, 100μM, after treatment; read-out: IR (inhibitory rate) L02. In short, it runs like this:
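Human normal hepatic L02 cells were plated in 96-well plates at 4 × 10^3 cells per well and grown for 24 h in 1640 or DMEM medium containing 10% fetal bovine serum, penicillin (100 unit/ml) and streptomycin (100 μg/ml), in a humidified 5% CO2 incubator. Cytotoxicity was then assessed using the MTT method.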

A further assay deals with SD rats. In words: Open field locomotor activity. Format: in vivo, rat. The conditions noted are these: ig. 32 mg/kg/day, days 2–15, vs untreated rats. The protocol: The detailed procedures were performed according to our previous studies. In brief, each SD rat was placed at the center of the open field (50 × 50 cm^2 chamber, 50-cm-high walls, with a 25 cm^2 area in the middle of floor defined as the central square) for 6 min in a quiet room. The animals were gently placed in the center of the platform and were allowed to explore the surroundings. A camera was installed above the center of the field. Immediately after a rat was placed at the center in the open field, the movements and position of the animals were recorded and registered automatically by computerized system. Next test was performed after cleaning the chamber. The traveled tracks of rats were recorded for 6 minutes and the videos of the last 4 minutes were analyzed also by Xeye Animal behavior analysis system.

Assay [1] relates to corticosterone injured PC12 cells. In words: Real-time PCR NGF mRNA level. Format: cell-based, rat. The note with it: 200 µM corticosterone and 5 µM drug.
For assay [2] the test system is unchanged. In words: Hoechst 33258 staining (apoptosis). Format: cell-based, rat. The note with it: 200 µM corticosterone and 5 µM drug. On the procedure: To detect apoptotic cells, drug treated cells were stained with the DNA dye Hoechst 33258. Cells with the indicated treatment were fixed with methanol for 10 min at 4 °C before incubation with Hoechst 33258 for 10 min at room temperature. After washes with PBS, the apoptotic cells were mounted onto slides and observed under the fluorescence microscope BX61 (Olympus, Japan). Images were captured using DP71 CCD digital camera (Olympus).

Another assay has as its target T1, hERG K^+ channel (Homo sapiens, UniProt Q12809).
T1 construct: expressed in transfected cells
Put plainly: hERG K+ channel inhibition (QPatch). The note with it: hERG-expressing CHO cells, Qpatch 16X assay. It counts as cell-based.

The target of the next assay is T2, 5-HT2C receptor (Homo sapiens, UniProt P28335).
T2 sequence (P28335 33-458): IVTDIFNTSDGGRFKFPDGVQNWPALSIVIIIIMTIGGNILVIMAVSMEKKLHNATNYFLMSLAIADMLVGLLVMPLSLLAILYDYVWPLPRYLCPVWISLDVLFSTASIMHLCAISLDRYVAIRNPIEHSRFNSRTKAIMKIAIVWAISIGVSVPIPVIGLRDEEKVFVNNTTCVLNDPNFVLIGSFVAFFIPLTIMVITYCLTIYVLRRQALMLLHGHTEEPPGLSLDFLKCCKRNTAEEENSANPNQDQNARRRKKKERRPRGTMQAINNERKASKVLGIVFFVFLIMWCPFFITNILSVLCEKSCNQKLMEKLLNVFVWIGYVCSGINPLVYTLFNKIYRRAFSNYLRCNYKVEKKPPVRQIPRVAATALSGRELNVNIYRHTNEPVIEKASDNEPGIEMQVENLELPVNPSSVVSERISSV
In words: FLIPR assay for 5-HT2C antagonism. Format: cell-based. The conditions noted are these: for inhibition at 100 µM: read-out: Inhibition 5-HT2C.

Read-outs that look alike come from different tables or passages of the source. Where only a bound is given, the exact number is not on record here.

T1 sequence (Q12809 whole entry): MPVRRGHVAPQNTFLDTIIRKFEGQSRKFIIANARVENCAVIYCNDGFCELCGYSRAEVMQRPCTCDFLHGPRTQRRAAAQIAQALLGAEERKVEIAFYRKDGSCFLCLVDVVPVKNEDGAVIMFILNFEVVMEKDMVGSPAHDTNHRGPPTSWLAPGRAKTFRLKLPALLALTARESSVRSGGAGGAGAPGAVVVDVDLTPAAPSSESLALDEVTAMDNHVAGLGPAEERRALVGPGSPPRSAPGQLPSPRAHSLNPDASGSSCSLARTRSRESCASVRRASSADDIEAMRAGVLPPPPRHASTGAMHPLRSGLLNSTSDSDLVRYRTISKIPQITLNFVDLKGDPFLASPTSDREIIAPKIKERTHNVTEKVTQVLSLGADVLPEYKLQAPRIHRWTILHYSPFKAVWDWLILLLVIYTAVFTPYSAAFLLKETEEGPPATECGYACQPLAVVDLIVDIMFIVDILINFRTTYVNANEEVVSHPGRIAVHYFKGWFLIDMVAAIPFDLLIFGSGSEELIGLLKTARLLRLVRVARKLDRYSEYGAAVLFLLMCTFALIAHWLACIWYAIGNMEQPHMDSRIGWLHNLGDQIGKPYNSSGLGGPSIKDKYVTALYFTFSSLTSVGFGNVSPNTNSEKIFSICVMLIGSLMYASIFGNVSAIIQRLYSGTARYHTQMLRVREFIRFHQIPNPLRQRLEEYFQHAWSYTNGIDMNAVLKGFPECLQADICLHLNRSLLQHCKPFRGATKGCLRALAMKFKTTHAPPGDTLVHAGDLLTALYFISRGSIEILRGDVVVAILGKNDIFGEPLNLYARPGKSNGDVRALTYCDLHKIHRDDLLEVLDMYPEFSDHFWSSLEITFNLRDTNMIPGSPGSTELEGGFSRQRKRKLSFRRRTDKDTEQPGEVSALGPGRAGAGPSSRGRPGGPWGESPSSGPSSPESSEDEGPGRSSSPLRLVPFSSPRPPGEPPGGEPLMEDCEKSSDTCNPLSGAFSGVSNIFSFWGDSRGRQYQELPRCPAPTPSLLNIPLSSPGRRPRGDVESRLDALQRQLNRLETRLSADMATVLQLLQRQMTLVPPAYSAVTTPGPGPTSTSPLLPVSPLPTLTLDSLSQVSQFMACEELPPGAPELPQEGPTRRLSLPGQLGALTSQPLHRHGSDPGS
Procedure for 5-HT2C receptor: Seed cells at the density of 10 K cell/well, 37 °C, 5% CO2 incubate for 16–24 hours, then loading cells with 30 ul of Calcium 5 and 37 °C, 5% CO2 incubate for 1 hour. After transfer compound to compound plate with 30 ul Assay Buffer by Echo, add 15 ul/well of compound, incubate for 10 mins.
Procedure for hERG K^+ channel: In brief, A Chinese hamster ovary (CHO) cell line stably expressing hERG potassium channels were cultured into appropriate cell density. Then cells were automatically prepared for application to chips. Whole-cell recordings were performed using automated QPatch (Sophion) and the data were analyzed using Assay Software provided by Graphpad Prism 5.0.

As for `COc1ccc2c(c1)C(CCNC(C)=O)=NCC2.O=C(O)C(=O)O` [6a-1, N-(2-(7-Methoxy-3,4-dihydroisoquinolin-1-yl)ethyl) acetamide oxalate], the inhibition at 100 µM was less than 20% in the assay on L02 cells and 5.2% on 5-HT2C receptor. In addition, the improved travelled distance with SD rats came to 131.2%. In addition, in assay [1], the “NGF mRNA level” value is given as “does not change”. Besides, in assay [2], the “apoptosis of PC12 cells induced by corticosterone” value is recorded as “effectively reversed apoptosis”. Moreover, the IC50 was greater than 40 µM against hERG K^+ channel and greater than 100 µM on 5-HT2C receptor (FLIPR calcium flux, read-out: IC50 5-HT2C antagonism).

As for `COc1ccc2cccc(CCNC(C)=O)c2c1` [Agomelatine, reference compound], the inhibition at 100 µM in the assay with L02 cells came to 41.8%; on 5-HT2C receptor (max tested concentration at 100μM), 66.6%. In the assay with SD rats, this molecule returned an improved travelled distance of 91.2%.

Source of the values: paper PMC5048153 (Scientific Reports, 2016).
